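Briefly, cells in 96-well plates were exposed to five compound concentrations for 48 h, and endpoints were estimated by linear interpolation. The concentration for 50% growth inhibition is given as GI50.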 The source made the active and inactive calls. Rule as the data show it: active = GI50 up to about 1.1 µM and inactive = higher.

Test systems include 786-0; HCT-15; HOP-92; M14; MCF7; MDA-MB-435; MOLT-4; NCI-H226; OVCAR-5; OVCAR-8; SF-295; SK-OV-3; SN12C; SW-620; TK-10; U-251; UACC-62; LOX IMVI; HCC 2998; BT-549.
Holding throughout (experiment): NCI-60 cell line screen, 48 h

`CC(C)[Si](OC12CCC(CC1O)CC2CO)(C(C)C)C(C)C` (stereo unspecified): the GI50 in the assay on 786-0 was 10.5 µM (inactive); with HCT-15, 14.1 µM; in the assay with HOP-92 it was 12.1 µM (inactive); with M14, 15.1 µM (inactive); in the assay on MCF7 it was 12 µM (inactive); in the assay on MDA-MB-435 it was 16.1 µM (inactive). The GI50 in the assay on MOLT-4 is 11.5 µM (inactive); with NCI-H226 it was 17.3 µM (inactive); in the assay with OVCAR-5, 17.4 µM (inactive); with OVCAR-8, 16.2 µM (inactive); in the assay with SF-295, 12.2 µM (inactive); with SK-OV-3, 14.4 µM (inactive). The GI50 in the assay with SN12C was 22 µM (inactive); in the assay on SW-620 it was 21.1 µM (inactive); with TK-10 it was 14.4 µM (inactive); in the assay on U-251, 12.6 µM (inactive); with UACC-62 it was 14.9 µM (inactive).

With `c1ccc(C[N+]23C(CC[C@H]2c2ccccc2)CC[C@H]3c2ccccc2)cc1` (stereo partly specified), the GI50 is 32.4 µM (inactive) in the assay on 786-0; 13.2 µM (inactive) in the assay with HOP-92; 29.2 µM (inactive) with LOX IMVI; 21.6 µM (inactive) in the assay with M14; 24.4 µM (inactive) in the assay with MCF7; 18.7 µM (inactive) in the assay on MDA-MB-435. The GI50 in the assay on MOLT-4 was 27.9 µM (inactive); in the assay with NCI-H226, 22.1 µM (inactive); with OVCAR-5, 86.1 µM (inactive); in the assay on OVCAR-8 it was 30.2 µM (inactive); in the assay with SF-295 it was 35.3 µM (inactive); in the assay on SK-OV-3, 67.9 µM (inactive). Moreover, the GI50 with SN12C was 37.5 µM (inactive); in the assay with SW-620, 43.4 µM (inactive); with TK-10, 74.1 µM (inactive); in the assay with U-251, 25.3 µM (inactive).

`CCOC(=O)[C@@H]1ON2O[C@@H](OC3CCCC3(c3ccccc3)c3ccccc3)C[C@H]3OC(=O)[C@@H]1C32` (stereo partly specified): the GI50 in the assay with 786-0 is 30.2 µM (inactive); in the assay on HCC 2998, 41.8 µM (inactive); with HCT-15, 31 µM; in the assay on HOP-92 it was 64.6 µM (inactive); in the assay on LOX IMVI, 37.8 µM (inactive); with M14, 16.6 µM (inactive). Also, the GI50 in the assay on MCF7 is 20.8 µM (inactive); in the assay with MDA-MB-435 it was 16.8 µM (inactive); in the assay with MOLT-4 it was 29.9 µM (inactive); with NCI-H226, 56.6 µM (inactive); in the assay on OVCAR-5 it was 20.9 µM (inactive); in the assay with OVCAR-8, 32.8 µM (inactive). The GI50 with SF-295 was > 100 µM (inactive); with SK-OV-3, 86.5 µM (inactive); in the assay with SN12C, 32.8 µM (inactive); in the assay with SW-620, 24.7 µM (inactive); in the assay on TK-10 it was 21.1 µM (inactive); in the assay on U-251, 56.4 µM (inactive). Also, the GI50 in the assay with UACC-62 is 19.1 µM (inactive).

With `CC(=O)OCSc1ncnc2c1ncn2CN1CCOCC1`, the GI50 in the assay with 786-0 was 7.91 µM (inactive); in the assay with HCC 2998, 6.46 µM (inactive); in the assay with HCT-15 it was 21.1 µM; with HOP-92, 1.08 µM (active); with LOX IMVI it was 2.03 µM (inactive); in the assay with M14, 2.25 µM (inactive). In addition, the GI50 is 4.12 µM (inactive) in the assay with MOLT-4; > 100 µM (inactive) in the assay with NCI-H226; 18.5 µM (inactive) with OVCAR-5; 28.9 µM (inactive) in the assay with OVCAR-8; 49.9 µM (inactive) in the assay on SF-295; 2.01 µM (inactive) in the assay on SK-OV-3. In addition, the GI50 in the assay on SN12C was 60.1 µM (inactive); in the assay with SW-620, 28.8 µM (inactive); in the assay on TK-10 it was 7.05 µM (inactive); in the assay with U-251, 47.8 µM (inactive); in the assay with UACC-62, 4.81 µM (inactive).

For `COc1ccc2[nH]c3c(c2c1)CCn1c-3nc2ccccc2c1=O`, the GI50 with 786-0 is > 25 µM (inactive); with HCC 2998, > 25 µM (inactive); with HCT-15 it was greater than 25 µM; in the assay with M14, > 25 µM (inactive); in the assay on MCF7 it was > 25 µM (inactive); in the assay on MDA-MB-435, > 25 µM (inactive). The GI50 in the assay with MOLT-4, with OVCAR-5, in the assay on OVCAR-8, with SF-295, in the assay on SK-OV-3 and with SN12C was > 25 µM (inactive) throughout. In addition, the GI50 in the assay on SW-620, with TK-10 and in the assay on U-251 was > 25 µM (inactive) in each case.

Consider `CC1(C)CC2=NOS3=C2C(=NO3)C1c1ccccn1` (stereo unspecified), for which the GI50 in the assay on 786-0 was 34.7 µM (inactive); with HCC 2998 it was > 100 µM (inactive); with HCT-15, 20 µM; in the assay with HOP-92, > 100 µM (inactive); with LOX IMVI, 36.1 µM (inactive); in the assay on M14, 40.7 µM (inactive). In addition, the GI50 in the assay with MCF7 is > 100 µM (inactive); in the assay on MDA-MB-435, 18.6 µM (inactive); in the assay on MOLT-4, 34.3 µM (inactive); in the assay on OVCAR-5, > 100 µM (inactive); in the assay with OVCAR-8, 39.5 µM (inactive); in the assay with SF-295 it was > 100 µM (inactive). Besides, the GI50 was > 100 µM (inactive) with SK-OV-3; > 100 µM (inactive) with SN12C; 69.5 µM (inactive) in the assay on SW-620; > 100 µM (inactive) in the assay with TK-10; > 100 µM (inactive) in the assay on U-251; 44.1 µM (inactive) with UACC-62.

`CC(C)OC(=O)NNc1cccc(Cl)c1`: the GI50 is > 100 µM (inactive) in the assay with 786-0; > 100 µM (inactive) in the assay with HCC 2998; greater than 100 µM with HCT-15; > 100 µM (inactive) with HOP-92; 65.8 µM (inactive) in the assay on LOX IMVI; > 100 µM (inactive) in the assay with M14. The GI50 in the assay with MCF7, with MDA-MB-435, in the assay with MOLT-4, in the assay with NCI-H226, with OVCAR-5 and with OVCAR-8 was > 100 µM (inactive) each time. In addition, the GI50 in the assay with SF-295, in the assay with SK-OV-3, in the assay on SN12C, in the assay on SW-620, in the assay on TK-10 and in the assay with U-251 was > 100 µM (inactive) in each case. Moreover, the GI50 in the assay on UACC-62 was 38.4 µM (inactive).

Regarding `CCC12C=CCN3CCC4(C(=C(C(=O)OC)[C@@H]1O)Nc1ccccc14)C32` (stereo partly specified), the GI50 was 1.64 µM (inactive) in the assay with 786-0; 1.63 µM (inactive) in the assay on HCC 2998; 1.57 µM with HCT-15; 1.6 µM (inactive) in the assay with HOP-92; 1.64 µM (inactive) in the assay with LOX IMVI; 2.2 µM (inactive) in the assay on M14. The GI50 was 2.43 µM (inactive) in the assay with MOLT-4; 1.26 µM (inactive) in the assay on NCI-H226; 2.44 µM (inactive) in the assay with OVCAR-5; 2.04 µM (inactive) with OVCAR-8; 2.05 µM (inactive) in the assay on SF-295; 2.43 µM (inactive) in the assay with SK-OV-3. Besides, the GI50 is 2.3 µM (inactive) in the assay on SN12C; 1.72 µM (inactive) with SW-620; 2.24 µM (inactive) with TK-10; 2.24 µM (inactive) in the assay with U-251; 1.77 µM (inactive) in the assay with UACC-62.

With `Cc1ccc(Sc2ccccc2N)cc1`, the GI50 is 29.2 µM (inactive) with 786-0; 40.8 µM (inactive) in the assay with HCC 2998; 37.8 µM in the assay with HCT-15; 22.7 µM (inactive) with HOP-92; 36.8 µM (inactive) in the assay with LOX IMVI; 32.7 µM (inactive) with M14. The GI50 is 18.4 µM (inactive) in the assay with MOLT-4; 17.5 µM (inactive) in the assay with NCI-H226; > 100 µM (inactive) with OVCAR-5; 52.2 µM (inactive) in the assay on OVCAR-8; 78.2 µM (inactive) with SF-295; > 100 µM (inactive) with SK-OV-3. Further, the GI50 in the assay with SN12C is 41.1 µM (inactive); in the assay with SW-620, 49 µM (inactive); in the assay on TK-10, 70.5 µM (inactive); with U-251, 67.3 µM (inactive); in the assay on UACC-62, 53.2 µM (inactive).

For `CCCCCCCCCC(=O)NC(CCC(=O)N(CCNC(=O)c1nc(-c2ccccc2)oc1-c1ccccc1)Cc1ccccc1)C(=O)O` (stereo unspecified), the GI50 is 17.7 µM (inactive) with 786-0; 19.3 µM (inactive) in the assay on BT-549; 16 µM in the assay on HCT-15; 17.6 µM (inactive) in the assay with HOP-92; 18.6 µM (inactive) in the assay with LOX IMVI; 15 µM (inactive) with M14. The GI50 in the assay with MDA-MB-435 is 18.7 µM (inactive); in the assay with MOLT-4, 22.4 µM (inactive); with NCI-H226, 23.8 µM (inactive); in the assay on OVCAR-5, 17.1 µM (inactive); with OVCAR-8 it was 17.5 µM (inactive); in the assay with SF-295, 18.1 µM (inactive). In addition, the GI50 in the assay on SK-OV-3 is 16.9 µM (inactive); in the assay on SN12C, 18.7 µM (inactive); in the assay with SW-620, 23.3 µM (inactive); in the assay with TK-10, 22.4 µM (inactive); in the assay on U-251, 18.9 µM (inactive).

For the molecule `CCN(CCCl)CCCNc1c2ccccc2nc2ccc(OC)cc12`, the GI50 was 0.114 µM (active) in the assay on 786-0; 0.535 µM (active) with HCC 2998; 0.257 µM with HCT-15; 0.133 µM (active) in the assay with HOP-92; 0.129 µM (active) with LOX IMVI; 0.522 µM (active) in the assay with M14. The GI50 was 0.0158 µM (active) with MOLT-4; 0.0678 µM (active) in the assay on NCI-H226; 0.344 µM (active) in the assay with OVCAR-5; 0.0857 µM (active) in the assay on OVCAR-8; 0.115 µM (active) in the assay with SF-295; 1.04 µM (active) in the assay on SK-OV-3. The GI50 in the assay with SN12C was 0.0548 µM (active); in the assay with SW-620, 0.0371 µM (active); with TK-10, 1.01 µM (active); with U-251, 0.199 µM (active); with UACC-62 it was 0.118 µM (active).

Turning to `CC(C)(C)c1ccc(OCCOCCOc2ccc(C(C)(C)C)cc2S(=O)(=O)Nc2ccc([N+](=O)[O-])cc2)c(S(=O)(=O)Nc2ccc([N+](=O)[O-])cc2)c1`, the GI50 with 786-0 is 45.6 µM (inactive); with HCC 2998, 8.73 µM (inactive); with HCT-15, 7.69 µM; with HOP-92 it was 4.07 µM (inactive); with LOX IMVI, 23.4 µM (inactive); in the assay with M14, 8.28 µM (inactive). Further, the GI50 with MOLT-4 is 3.01 µM (inactive); in the assay on NCI-H226, 47.8 µM (inactive); in the assay with OVCAR-5, > 100 µM (inactive); in the assay with OVCAR-8, 9.95 µM (inactive); in the assay with SF-295, 8.47 µM (inactive); with SK-OV-3 it was > 100 µM (inactive). Besides, the GI50 in the assay on SN12C is 7.19 µM (inactive); with SW-620, 61.8 µM (inactive); in the assay with TK-10, 5.64 µM (inactive); in the assay on U-251 it was 7.28 µM (inactive); with UACC-62, 6.21 µM (inactive).

The values are drawn from ChEMBL document CHEMBL1201862, “PubChem BioAssay data set” (2004).
